This passage reports IC50 and inhibition results from patent publication US8835646B2, “Organic compounds” (Novartis AG, priority 2005, dated 2014).

Molecules are shown by their SMILES.

The target of assay [1] is T1, aldosterone synthase (Homo sapiens, UniProt P19099).
T1 construct: host or cells: NCI-H295R
T1 sequence (P19099 25-503): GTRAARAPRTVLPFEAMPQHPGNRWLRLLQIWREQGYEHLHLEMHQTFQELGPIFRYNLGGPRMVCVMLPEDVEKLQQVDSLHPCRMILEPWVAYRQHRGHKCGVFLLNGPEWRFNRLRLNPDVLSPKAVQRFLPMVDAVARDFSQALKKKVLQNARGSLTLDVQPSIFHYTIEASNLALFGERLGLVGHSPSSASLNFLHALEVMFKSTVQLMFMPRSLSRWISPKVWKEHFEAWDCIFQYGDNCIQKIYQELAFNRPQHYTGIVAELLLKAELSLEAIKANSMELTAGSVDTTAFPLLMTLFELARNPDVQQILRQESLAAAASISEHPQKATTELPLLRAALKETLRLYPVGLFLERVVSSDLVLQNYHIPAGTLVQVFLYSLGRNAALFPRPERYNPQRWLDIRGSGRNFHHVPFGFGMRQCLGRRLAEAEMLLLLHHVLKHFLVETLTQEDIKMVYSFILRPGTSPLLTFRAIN
The assay is described as follows: cellular aldosterone production in NCI-H295R cells stimulated with Ang II (RIA/SPA). Type of assay: cell-based. The settings on record: human adrenocortical carcinoma NCI-H295R cells, 1 μM Ang II, 24 hr. From the text:
(§1) Human adrenocortical carcinoma NCl-H295R cell line is obtained from American Type Culture Collection (Manassas, Va.). Insulin/transferrin/selenium (ITS)-A supplement (100×), DMEM/F-12, antibiotic/antimycotic (100×), and fetal calf serum (FCS) are purchased from Gibco (Grand Island, N.Y.). Anti-mouse PVT scintillation proximity assay (SPA) beads and NBS 96-well plates are obtained from Amersham (Piscataway, N.J.) and Corning (Acton, Mass.), respectively. Solid black 96-well flat bottom plates are purchased from Costar (Corning, N.Y.). Aldosterone and angiotensin (Ang II) are purchased from Sigma (St. Louis, Mo.). D-[1,2,6,7-^3H(N)]aldosterone was acquired from PerkinElmer (Boston, Mass.). Nu-serum was a product of BD Biosciences (Franklin Lakes, N.J.). The NADPH regenerating system, dibenzylfluorescein (DBF), and human aromatase Supersomes® are obtained from Gentest (Woburn, Mass.).
For in vitro measurement of aldosterone activity, human adrenocortical carcinoma NCI-H295R cells are seeded in NBS 96-well plates at a density of 25,000 cells/well in 100 μl of a growth medium containing DMEM/F12 supplemented with 10% FCS, 2.5% Nu-serum, 1 μg ITS/ml, and 1× antibiotic/antimycotic. The medium is changed after culturing for 3 days at 37° C. under an atmosphere of 5% CO2/95% air. On the following day, cells are rinsed with 100 μl of DMEM/F12 and incubated with 100 μl of treatment medium containing 1 μM Ang II and a compound at different concentrations in quadruplicate wells at 37° C. for 24 hr. At the end of incubation, 50 μl of medium is withdrawn from each well for measurement of aldosterone production by an RIA using mouse anti-aldosterone monoclonal antibodies.
Measurement of aldosterone activity can also be performed using a 96-well plate format. Each test sample is incubated with 0.02 μCi of D-[1,2,6,7-^3H(N)]aldosterone and 0.3 μg of anti-aldosterone antibody in phosphate-buffered saline (PBS) containing 0.1% Triton X-100, 0.1% bovine serum albumin, and 12% glycerol in a total volume of 200 μl at room temperature for 1 hr. Anti-mouse PVT SPA beads (50 μl) are then added to each well and incubated overnight at room temperature prior to counting in a Microbeta plate counter. The amount of aldosterone in each sample is calculated by comparing with a standard curve generated using known quantities of the hormone.
(§2) Full concentration-response curves of the test compound are performed at least 3 times. The IC50 values are derived using a non-linear least squares curve-fitting program from Microsoft XLfit.

The target in assay [2] is T2, human aromatase (Homo sapiens, UniProt P11511).
T2 construct: purchased Gentest (Woburn, Mass.)
T2 sequence (P11511 1-503): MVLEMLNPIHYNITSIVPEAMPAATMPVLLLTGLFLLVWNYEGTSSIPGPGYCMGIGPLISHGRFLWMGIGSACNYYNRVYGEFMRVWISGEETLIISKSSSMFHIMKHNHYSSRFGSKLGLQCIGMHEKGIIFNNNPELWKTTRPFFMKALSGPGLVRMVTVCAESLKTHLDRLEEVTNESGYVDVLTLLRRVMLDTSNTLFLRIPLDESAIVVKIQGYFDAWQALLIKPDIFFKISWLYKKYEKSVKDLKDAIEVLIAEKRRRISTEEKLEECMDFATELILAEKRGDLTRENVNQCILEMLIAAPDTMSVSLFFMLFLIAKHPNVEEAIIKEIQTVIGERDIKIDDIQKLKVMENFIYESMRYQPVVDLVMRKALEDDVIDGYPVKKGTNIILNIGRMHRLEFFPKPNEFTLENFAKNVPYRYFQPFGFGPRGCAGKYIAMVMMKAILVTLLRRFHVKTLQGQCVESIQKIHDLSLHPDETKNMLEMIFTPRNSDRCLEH
Briefly: human aromatase assay (Supersomes, DBF substrate, fluorescence). The class given is biochemical. Particulars: 10000 nM.
Text: as §1
To measure aromatase activity, the human aromatase assay is performed in 96-well flat bottom plates according to a published protocol (Stresser et al, 2000) with minor modifications. Briefly, 10 μl of an NADPH regenerating system containing 2.6 mM NADP^+, 6.6 mM glucose 6-phosphate, 6.6 mM MgCl2, and 0.8 U/ml glucose-6-phosphate dehydrogenase in 50 mM potassium phosphate, pH 7.4, is pre-incubated with the test compound at a desired concentration at 30° C. for 10 min in a total volume of 100 μl. Afterwards, 4 pmol of human aromatase, 20 μg of control microsomal protein, and 4 μM DBF in 100 μl of 50 mM potassium phosphate, pH 7.4, is added to each well and incubated at 30° C. for 90 min. The reaction is terminated by the addition of 75 μl of 2 N NaOH to each well. After 2 hr, the product, fluorescein, is measured by a fluorimeter using excitation and emission wavelengths of 485 and 538 nm, respectively.
as §2

One may read the IC50 as the point on the concentration scale where inhibition reaches its midpoint. Read a high IC50 as weaker potency in that assay. The term inhibition denotes the drop in the measured response relative to a control, in per cent. `COC(=O)C1(c2ccc(C#N)cc2OC(F)(F)F)CCc2cncn21` (centres unmarked) [5-(4-Cyano-2-trifluoromethoxyphenyl)-6,7-dihydro-5H-pyrrolo[1,2-c]imidazole-5-carboxylic acid methyl ester] showed an IC50 in assay [1] of 2 nM. In addition, the inhibition at 10 µM in assay [2] was 99%.
In turn, `Fc1ccc(C2CCCc3cncn32)c(-c2ccsc2)c1` (centres unmarked) [5-(4-Fluoro-2-thiophen-3-yl-phenyl)-5,6,7,8-tetrahydroimidazo[1,5-a]pyridine] had an IC50 in assay [1] of 93 nM. The inhibition at 10 µM in assay [2] came out at 88%.
The matching figures for `Fc1ccc(C2CCCc3cncn32)c(-c2ccccc2)c1` (centres unmarked) [5-(5-Fluorobiphenyl-2-yl)-5,6,7,8-tetrahydroimidazo[1,5-a]pyridine]: 57 nM and 98%.
For `N#Cc1ccc(C2CC3(CC3)c3cncn32)c(F)c1` (centres unmarked) [5′-[2-fluoro-4-cyano-phenyl]-5′,6′-dihydrospiro[cyclopropane-1,7′-pyrrolo[1,2-c]imidazole]] the same measures were 11 nM and 99%.
